The assay concerns IL-12. In words: Human in vitro assay: inhibition of IL-12 production in IFNγ/LPS- or IFNγ/SAC-stimulated human PBMC or THP-1 cells (ELISA). The note with it: read-out: IC50 Range (representative in vitro IC50 data). Type of assay: cell-based. Put shortly:
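Sandwich ELISA for IL-12 (p70, p40) on supernatants collected 18 h after stimulation gave IC50 values; MTS monitored viability. THP-1 cells: IFNγ 100 U/mL priming 22 h, SAC 0.025%. PBMC: IFNγ 30 U/mL for 22 h plus LPS 1 μg/mL, or IFNγ 100 U/mL plus SAC 0.01%. Final DMSO 0.25%.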
A general note: In an ELISA, binding on a coated surface is turned into a signal by an enzyme label.

Where only a bound is given, the exact number is not on record here.

By IC50 is commonly meant the concentration that gives 50% inhibition. With `Cc1ccc(-c2csc(NC(=O)Nc3cc(OCCN4CCOCC4)nc(N4CCOCC4)n3)n2)cc1` [Compound 142, 1-[2-Morpholin-4-yl-6-(2-morpholin-4-yl-ethoxy)-pyrimidin-4-yl]-3-(4-p-tolyl-thiazol-2-yl)-urea], the IC50 was not below 1000 nM.

For the molecule `O=C(Nc1ccnc(Cl)c1)c1cc(OCCN2CCOCC2)nc(N2CCOCC2)n1` [Compound 149, 2-Morpholin-4-yl-6-(2-morpholin-4-yl-ethoxy)-pyrimidine-4-carboxylic acid (2-chloro-pyridin-4-yl)-amide], the IC50 was not below 1000 nM.

On to `CN1CCc2ccc(NC(=O)c3cc(OCCN4CCOCC4)nc(N4CCOCC4)n3)cc21` [Compound 214, N-(1-methylindolin-6-yl)-2-morpholino-6-(2-morpholinoethoxy)pyrimidine-4-carboxamide], for which the IC50 is less than 1000 nM.

On to `Cc1[nH]c2ccc(NC(=O)c3cc(NCC(=O)N4CCc5ccccc5C4)nc(N4CCOCC4)n3)cc2c1C` [Compound 103, 6-[2-(3,4-Dihydro-1H-isoquinolin-2-yl)-2-oxo-ethylamino]-2-morpholin-4-yl-pyrimidine-4-carboxylic acid (2,3-dimethyl-1H-indol-5-yl)-amide], for which the IC50 is less than 1000 nM.

On to `CCc1cccc(NC(=O)Nc2cc(OCCN3CCOCC3)nc(N3CCOCC3)n2)c1` [Compound 131, 1-(3-Ethyl-phenyl)-3-[2-morpholin-4-yl-6-(2-morpholin-4-yl-ethoxy)-pyrimidin-4-yl]-urea], for which the 50% inhibitory concentration (IC50) is less than 1000 nM.

With `CCc1c[nH]c2ccc(NC(=O)c3cc(N4CCC5(CC4)OCCO5)nc(N4CCOCC4)n3)cc12` [Compound 175, 6-(1,4-Dioxa-8-aza-spiro[4.5]dec-8-yl)-2-morpholin-4-yl-pyrimidine-4-carboxylic acid (3-ethyl-1H-indol-5-yl)-amide], the 50% inhibitory concentration (IC50) was less than 1000 nM.

For `Cc1c(C)n(O)c2ccc(NC(=O)c3cc(OCCN4CCOCC4)nc(N4CCOCC4)n3)cc12` [Compound 320, 2-Morpholin-4-yl-6-(2-morpholin-4-yl-ethoxy)-pyrimidine-4-carboxylic acid (1-hydroxy-2,3-dimethyl-1H-indol-5-yl)-amide], the 50% inhibitory concentration (IC50) was less than 1000 nM.

As to `CCn1c2ccccc2c2ccc(NC(=O)c3cc(OCCc4ccccn4)nc(N4CCOCC4)n3)cc21` [Compound 33, 2-Morpholin-4-yl-6-(2-pyridin-2-yl-ethoxy)-pyrimidine-4-carboxylic acid (9-ethyl-9H-carbazol-2-yl)-amide], the IC50 was not below 1000 nM.

In the case of `COCCN(C)c1cc(C(=O)Nc2ccc(C(C)C)c(C)c2)nc(N2CCOCC2)n1` [Compound 229, 6-[(2-Methoxy-ethyl)-methyl-amino]-2-morpholin-4-yl-pyrimidine-4-carboxylic acid (4-isopropyl-3-methyl-phenyl)-amide], the half-inhibitory concentration (IC50) is not below 1000 nM.

Take `Cc1ccc(NC(=S)Nc2cc(N3CCOCC3)nc(OCCN3CCOCC3)n2)cc1` [Compound 12, 1-[6-Morpholin-4-yl-2-(2-morpholin-4-yl-ethoxy)-pyrimidin-4-yl]-3-p-tolyl-thiourea]: the IC50 is not below 1000 nM.

As to `Cc1[nH]c2ccc(NC(=O)c3cc(NCC(=O)N4CCC(O)CC4)nc(N4CCOCC4)n3)cc2c1C` [Compound 100, 6-[2-(4-Hydroxy-piperidin-1-yl)-2-oxo-ethylamino]-2-morpholin-4-yl-pyrimidine-4-carboxylic acid (2,3-dimethyl-1H-indol-5-yl)-amide], the IC50 was less than 1000 nM.

With `Cc1[nH]c2ccc(NC(=O)c3cccc(N4CCOCC4)n3)cc2c1C` [Compound 168, 6-Morpholin-4-yl-pyridine-2-carboxylic acid (2,3-dimethyl-1H-indol-5-yl)-amide], the 50% inhibitory concentration (IC50) is less than 1000 nM.

Consider `COCCN(C)c1cc(C(=O)NCCc2ccc(C)cc2)nc(N2CCOCC2)n1` [Compound 233, 6-[(2-Methoxy-ethyl)-methyl-amino]-2-morpholin-4-yl-pyrimidine-4-carboxylic acid (2-p-tolyl-ethyl)-amide], for which the IC50 is not below 1000 nM.

As to `COCCN(C)c1cc(C(=O)Nc2ccc3nc(C)c(C)nc3c2)nc(N2CCOCC2)n1` [Compound 241, 6-[(2-Methoxy-ethyl)-methyl-amino]-2-morpholin-4-yl-pyrimidine-4-carboxylic acid (2,3-dimethyl-quinoxalin-6-yl)-amide], the IC50 is not below 1000 nM.

On to `CCc1c(C)[nH]c2ccc(NC(=O)c3cc(N4CCC(C(N)=O)CC4)nc(N4CCOCC4)n3)cc12` [Compound 183, 6-(4-Carbamoyl-piperidin-1-yl)-2-morpholin-4-yl-pyrimidine-4-carboxylic acid (3-ethyl-2-methyl-1H-indol-5-yl)-amide], for which the IC50 is less than 1000 nM.

`O=C(Nc1ccc2c(C(F)(F)F)cc(=O)oc2c1)c1cc(NCCN2CCOCC2)nc(N2CCOCC2)n1` [Compound 192, 2-morpholino-6-(2-morpholinoethylamino)-N-(2-oxo-4-(trifluoromethyl)-2H-chromen-7-yl)pyrimidine-4-carboxamide]: the half-inhibitory concentration (IC50) was not below 1000 nM.

As for `O=C(Nc1ccc2[nH]ccc2c1)Nc1cc(OCCN2CCOCC2)nc(N2CCOCC2)n1` [Compound 137, 1-(1H-Indol-5-yl)-3-[2-morpholin-4-yl-6-(2-morpholin-4-yl-ethoxy)-pyrimidin-4-yl]-urea], the IC50 was less than 1000 nM.

With `O=C(Nc1cccc(-n2cccn2)c1)c1cc(OCC(=O)N2CCCCC2)nc(N2CCOCC2)n1` [Compound 115, 2-Morpholin-4-yl-6-(2-oxo-2-piperidin-1-yl-ethoxy)-pyrimidine-4-carboxylic acid (3-pyrazol-1-yl-phenyl)-amide], the half-maximal inhibitory concentration (IC50) is less than 1000 nM.

As for `Cc1[nH]c2ccc(NC(=O)c3cc(OCCN4CCCCC4)nc(N4CCOCC4)n3)cc2c1C` [Compound 42, 2-Morpholin-4-yl-6-(2-piperidin-1-yl-ethoxy)-pyrimidine-4-carboxylic acid (2,3-dimethyl-1H-indol-5-yl)-amide], the IC50 was not below 1000 nM.

Take `COCCN(CCOC)c1cc(C(=O)Nc2ccc3[nH]c(C)c(C)c3c2)nc(N2CCOCC2)n1` [Compound 258, 6-(bis(2-methoxyethyl)amino)-N-(2,3-dimethyl-1H-indol-5-yl)-2-morpholinopyrimidine-4-carboxamide]: the IC50 was less than 1000 nM.

In the case of `O=C(Nc1ccc2[nH]c(C(F)(F)F)nc2c1)c1cc(NCCN2CCOCC2)nc(N2CCOCC2)n1` [Compound 190, 2-morpholino-6-(2-morpholinoethylamino)-N-(2-(trifluoromethyl)-1H-benzo[d]imidazol-5-yl)pyrimidine-4-carboxamide], the IC50 is not below 1000 nM.

Turning to `Cc1c(C)n(C)c2ccc(NC(=O)c3cc(N4CCOCC4)cc(N4CCOCC4)n3)cc12` [Compound 147, 4,6-Di-morpholin-4-yl-pyridine-2-carboxylic acid (1,2,3-trimethyl-1H-indol-5-yl)-amide], the IC50 is less than 1000 nM.

On to `Cc1ccc(NC(=O)c2cc(OCCN3CCOCC3)nc(N3CCOCC3)n2)cn1` [Compound 297, 2-Morpholin-4-yl-6-(2-morpholin-4-yl-ethoxy)-pyrimidine-4-carboxylic acid (6-methyl-pyridin-3-yl)-amide], for which the IC50 was not below 1000 nM.

`Cc1[nH]c2ccc(NC(=O)c3cc(N4CCOCC4)nc(N4CCOCC4)n3)cc2c1C` [Compound 22, 2,6-Di-morpholin-4-yl-pyrimidine-4-carboxylic acid (2,3-dimethyl-1H-indol-5-yl)-amide]: the IC50 is less than 1000 nM.

For `Cc1cc(C(=O)Nc2ccc3[nH]c(C)c(C)c3c2)nc(N2CCOCC2)n1` [Compound 253, N-(2,3-dimethyl-1H-indol-5-yl)-6-methyl-2-morpholinopyrimidine-4-carboxamide], the 50% inhibitory concentration (IC50) was less than 1000 nM.

Take `Cc1[nH]c2ccc(NC(=O)c3cc(N4CCOCC4)cc(N4CCOCC4)n3)cc2c1C` [Compound 30, 4,6-Di-morpholin-4-yl-pyridine-2-carboxylic acid (2,3-dimethyl-1H-indol-5-yl)-amide]: the 50% inhibitory concentration (IC50) was less than 1000 nM.

`O=C(Nc1cccc([N+](=O)[O-])c1)Nc1cc(OCCN2CCOCC2)nc(N2CCOCC2)n1` [Compound 128, 1-[2-Morpholin-4-yl-6-(2-morpholin-4-yl-ethoxy)-pyrimidin-4-yl]-3-(3-nitro-phenyl)-urea]: the IC50 was not below 1000 nM.

On to `O=C(Nc1cc(OCCN2CCOCC2)nc(N2CCOCC2)n1)Nc1cc(-c2ccco2)n[nH]1` [Compound 144, 1-(5-Furan-2-yl-2H-pyrazol-3-yl)-3-[2-morpholin-4-yl-6-(2-morpholin-4-yl-ethoxy)-pyrimidin-4-yl]-urea], for which the half-maximal inhibitory concentration (IC50) was not below 1000 nM.

Turning to `O=C(Nc1cc(-c2cccs2)[nH]n1)c1cc(OCCN2CCOCC2)nc(N2CCOCC2)n1` [Compound 45, 2-Morpholin-4-yl-6-(2-morpholin-4-yl-ethoxy)-pyrimidine-4-carboxylic acid (5-thiophen-2-yl-1H-pyrazol-3-yl)-amide], the IC50 was not below 1000 nM.

On to `Cc1cccc(NC(=O)c2cc(OCCN3CCOCC3)nc(N3CCOCC3)n2)c1` [Compound 56, 2-Morpholin-4-yl-6-(2-morpholin-4-yl-ethoxy)-pyrimidine-4-carboxylic acid m-tolylamide], for which the concentration for half-maximal inhibition (IC50) is not below 1000 nM.

Consider `O=C(Nc1ccc(Nc2ccccc2)cc1)c1cc(OCCN2CCOCC2)nc(N2CCOCC2)n1` [Compound 284, 2-Morpholin-4-yl-6-(2-morpholin-4-yl-ethoxy)-pyrimidine-4-carboxylic acid (4-phenylamino-phenyl)-amide], for which the IC50 was not below 1000 nM.

`Cc1ccc(NC(=O)c2cc(OCCN3CCOCC3)nc(N3CCOCC3)n2)cc1N(C)C` [Compound 290, 2-Morpholin-4-yl-6-(2-morpholin-4-yl-ethoxy)-pyrimidine-4-carboxylic acid (3-dimethylamino-4-methyl-phenyl)-amide]: the IC50 was less than 1000 nM.

Turning to `COCCN(C)c1cc(C(=O)Nc2ccc(N3CCOCC3)c(C(N)=O)c2)nc(N2CCOCC2)n1` [Compound 234, 6-[(2-Methoxy-ethyl)-methyl-amino]-2-morpholin-4-yl-pyrimidine-4-carboxylic acid (3-carbamoyl-4-morpholin-4-yl-phenyl)-amide], the half-inhibitory concentration (IC50) is not below 1000 nM.
